Experimental data reported in US7507727B2, “Substituted quinobenzoxazine analogs and methods of using thereof” (Cylene Pharmaceuticals, Inc., priority 2003, dated 2009).

Legend:
HeLa cells = test: MTS cell proliferation and/or cytotoxicity assay; type: cell-based, Human; details: Homo sapiens, HeLa, HeLa cells, MTS; read-out: Hela MTS
Summary of the method: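 HeLa cells seeded at 4,500 cells/well, exposed to compounds from day 1 for 3 days at 37 °C, 5% CO2. Viability by MTS/PMS (20:1) with 4 h incubation, absorbance at 490 nm. Values are concentrations giving 50% antiproliferative response.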

[1] = biological target: c-Myc template DNA (c-myc quadruplex); test: Quadruplex binding / stop assay (Taq polymerase arrest, capillary electrophoresis); details: read-out: S DATA; Table 1D, stop assay data

## CC1(C)CC(NC(=O)c2cn3c4c(c(N5CCC(N)C5)ccc4c2=O)Oc2cc4ccccc4cc2-3)CC(C)(C)N1 (stereo not shown) [compound 1558]
HeLa cells
  IC50: 240 nM
[1]
  IC50: 375 nM

## CN(C)CCCCNC(=O)c1cn2c3c(c(N4CCC(N)C4)ccc3c1=O)Oc1cc3ccccc3cc1-2 (stereo not shown) [compound 1559]
HeLa cells
  IC50: 240 nM
[1]
  IC50: 180 nM

## O=C(NCCN1CCCC1)c1cn2c3c(c(N4CC5CCCNC5C4)c(F)cc3c1=O)Oc1cc3ccccc3cc1-2 (stereo not shown) [compound 1635]
HeLa cells
  IC50: 300 nM
[1]
  IC50: 180 nM

## CN1CCCC1CCNC(=O)c1cn2c3c(c(N4CC5CCCNC5C4)c(F)cc3c1=O)Oc1cc3ccccc3cc1-2 (stereo not shown) [compound 1636]
HeLa cells
  IC50: 150 nM
[1]
  IC50: 375 nM

## O=C(NCCCN1CCOCC1)c1cn2c3c(c(N4CC5CCCNC5C4)c(F)cc3c1=O)Oc1cc3ccccc3cc1-2 (stereo not shown) [compound 1637]
HeLa cells
  IC50: 100 nM
[1]
  IC50: 375 nM

## CN(C)CCCCNC(=O)c1cn2c3c(c(N4CC5CCCNC5C4)c(F)cc3c1=O)Oc1cc3ccccc3cc1-2 (stereo not shown) [compound 1639]
HeLa cells
  IC50: 100 nM
[1]
  IC50: 375 nM

## O=C(NCCN1CCOCC1)c1cn2c3c(c(N4CC5CCCNC5C4)c(F)cc3c1=O)Oc1cc3ccccc3cc1-2 (stereo not shown) [compound 1640]
HeLa cells
  IC50: 30 nM
[1]
  IC50: 250 nM

## CC1(C)CC(NC(=O)c2cn3c4c(c(N5CC6CCCNC6C5)c(F)cc4c2=O)Oc2cc4ccccc4cc2-3)CC(C)(C)N1 (stereo not shown) [compound 1642]
HeLa cells
  IC50: 180 nM
[1]
  IC50: 500 nM

## CN(C)CC(C)(C)CNC(=O)c1cn2c3c(c(N4CC5CCCNC5C4)c(F)cc3c1=O)Oc1cc3ccccc3cc1-2 (stereo not shown) [compound 1644]
HeLa cells
  IC50: 650 nM
[1]
  IC50: 375 nM

## CN1CCCC1CCNC(=O)c1cn2c3c(c(N4CCC(N)C4)c(F)cc3c1=O)Nc1cc3ccccc3cc1-2 (stereo not shown) [compound 1645]
HeLa cells
  IC50: 3300 nM
[1]
  IC50: 620 nM

## N=C(N)NCCNC(=O)c1cn2c3c(c(N4CC5CCCNC5C4)c(F)cc3c1=O)Oc1cc3ccccc3cc1-2 (stereo not shown) [compound 1646]
HeLa cells
  IC50: 400 nM
[1]
  IC50: 640 nM

## N=C(N)NCC1CCCC(CNC(=O)c2cn3c4c(c(N5CCC(N)C5)c(F)cc4c2=O)Oc2cc4ccccc4cc2-3)C1 (stereo not shown) [compound 1649]
HeLa cells
  IC50: 2200 nM
[1]
  IC50: 370 nM

## CN1CCCC1CCNC(=O)c1cn2c3c(c(NCCc4c[nH]cn4)c(F)cc3c1=O)Oc1cc3ccccc3cc1-2 (stereo not shown) [compound 1657]
HeLa cells
  IC50: 500 nM
[1]
  IC50: 375 nM

## CN1CCCC1CCNC(=O)c1cn2c3c(c(NCC4(O)CCCCC4)c(F)cc3c1=O)Oc1cc3ccccc3cc1-2 (stereo not shown) [compound 1665]
HeLa cells
  IC50: 240 nM
[1]
  IC50: 750 nM

## CN1CCCC1CCNC(=O)c1cn2c3c(c(NCC(O)c4ccccc4)c(F)cc3c1=O)Oc1cc3ccccc3cc1-2 (stereo not shown) [compound 1676]
HeLa cells
  IC50: 190 nM
[1]
  IC50: 750 nM

## CN1CCCC1CCNC(=O)c1cn2c3c(c(NCCc4ccc(O)c(O)c4)c(F)cc3c1=O)Oc1cc3ccccc3cc1-2 (stereo not shown) [compound 1680]
HeLa cells
  IC50: 1800 nM
[1]
  IC50: 750 nM

## CN1CCCC1CCNC(=O)c1cn2c3c(c(NCCc4ccc(O)cc4)c(F)cc3c1=O)Oc1cc3ccccc3cc1-2 (stereo not shown) [compound 1681]
HeLa cells
  IC50: 2100 nM
[1]
  IC50: 750 nM

## CN1CCCC1CCNC(=O)c1cn2c3c(c(NCCCN(CCO)CCO)c(F)cc3c1=O)Oc1cc3ccccc3cc1-2 (stereo not shown) [compound 1686]
HeLa cells
  IC50: 400 nM
[1]
  IC50: 375 nM

## CN(C)c1cccc(CNc2c(F)cc3c(=O)c(C(=O)NCCC4CCCN4C)cn4c3c2Oc2cc3ccccc3cc2-4)c1 (stereo not shown) [compound 1688]
HeLa cells
  IC50: 250 nM
[1]
  IC50: 750 nM

## CN1CCC(Nc2c(F)cc3c(=O)c(C(=O)NCCC4CCCN4C)cn4c3c2Oc2cc3ccccc3cc2-4)CC1 (stereo not shown) [compound 1690]
HeLa cells
  IC50: 310 nM
[1]
  IC50: 750 nM

## O=C(NCCN1CCCC1)c1cn2c3cc4c(cc3oc3c(N5CC6CCCNC6C5)c(F)cc(c1=O)c32)c(=O)c1ccccc14 (stereo not shown) [compound 1726]
HeLa cells
  IC50: 2600 nM
[1]
  IC50: 125 nM

## CCN(CC)CCCC(C)NC(=O)c1cn2c3c(c(N4CC5CCCNC5C4)c(F)cc3c1=O)Oc1cc3ccccc3cc1-2 (stereo not shown) [compound 1727]
HeLa cells
  IC50: 360 nM
[1]
  IC50: 750 nM

## O=C(NCCN1CCCC1)c1cn2c3c(c(N4CC5CCCNC5C4)ccc3c1=O)Oc1cc3ccccc3cc1-2 (stereo not shown) [compound 1732]
HeLa cells
  IC50: 200 nM
[1]
  IC50: 375 nM

## CN1CCC[C@H]1CCNC(=O)c1cn2c3c(c(N4CCC(c5cnccn5)C4)c(F)cc3c1=O)Oc1cc3ccccc3cc1-2 (stereo partly shown) [compound 1742]
HeLa cells
  IC50: 3300 nM
[1]
  IC50: 850 nM

## CN1CCCC1CCNC(=O)c1cn2c3c(c(N)c(F)cc3c1=O)Oc1c-2ccc2ccccc12 (stereo not shown) [compound 1763]
HeLa cells
  IC50: 3800 nM
[1]
  IC50: 1500 nM

## O=C(NCCN1CCCC1)c1cn2c3c(c(SCCc4ccccn4)c(F)cc3c1=O)Oc1cc3ccccc3cc1-2 [compound 1782]
HeLa cells
  IC50: 2100 nM
[1]
  IC50: 3300 nM
